# Reference: US7622634B2 (priority 2001, dated 2009)
# Tests used:
# [1] = test system: BY-2 cell lines expressing the different yeast Pdr5 transporters; conditions: compared to the control GUS-expressing lines
# wild type yeast = conditions: YPD plates, growth evaluated after two days at 28° C.
# Wild type BY-2 cells = conditions: MSST plates, growth evaluated after 15 days at 26° C.
# [2] = test system: Transgenic BY-2 cells expressing AtPDR1; conditions: compared to the control GUS expressing line
# [3] = test system: yeast AD3 strain expressing AtPDR1; conditions: YPD plates containing the alkaloid
# tobacco BY-2 cells = conditions: Nicotiana tabacum
# Pdr5p = Pdr5p (Saccharomyces cerevisiae, UniProt P33302); conditions: Kolaczkowski et al. 1996, 1998; cited from earlier work
# HmPDR1 = test: Quantitative RT-PCR of HmPDR1 expression in hairy roots; assay type: cell-based, Hyoscyamus muticus; conditions: 1 mM CdCl2, H2O as a control
# Description: FIG. 3: HmPDR1 expression is induced by CdCl2. Quantitative RT-PCR analysis of HmPDR1 in total RNA from H. muticus hairy roots treated with 1 mM CdCl2 or H2O as a control. Ethidium bromide-stained rRNA is used as a control. The fold increase in the ratio of HmPDR1 transcript to rRNA fluorescence, relative to the value at time point zero, is given below the panels. Time after elicitation is indicated in hours.
# To confirm the postulated relationship between the expression of ABC transporter genes and the CdCl2 induced release of alkaloids we performed an expression analysis of the HmPDR1 gene in CdCl2 treated Hyoscyamus hairy roots (FIG. 3).
# [4] = test system: BY-2 cells transformed with pK7WGD2-ScPDR5-US50; test: Hyoscyamine-induced cell death (Evans blue) in the ScPDR5-US50 line; assay type: cell-based, Nicotiana tabacum; conditions: 30 mM hyoscyamine, US50 lines compared to GUS control line
# Description: FIG. 2: Hyoscyamine-induced cell death in transformed BY-2 cells. […] Cell death was assayed at two time points (6 hours and 24 hours) by Evans blue staining and is indicated as the fold increase in optical density at OD600 relative to the value at the start of the experiment. Values are the mean of three independent experiments. GUS, US50, W303 and AT represent BY-2 cell lines transformed with pK7WGD2-GUS, pK7WGD2-ScPDR5-US50, pK7WGD2-ScPDR5-W303 and pK7WGD2-AtPDR1 respectively.
# Pdr5p, sequence (P33302 whole entry): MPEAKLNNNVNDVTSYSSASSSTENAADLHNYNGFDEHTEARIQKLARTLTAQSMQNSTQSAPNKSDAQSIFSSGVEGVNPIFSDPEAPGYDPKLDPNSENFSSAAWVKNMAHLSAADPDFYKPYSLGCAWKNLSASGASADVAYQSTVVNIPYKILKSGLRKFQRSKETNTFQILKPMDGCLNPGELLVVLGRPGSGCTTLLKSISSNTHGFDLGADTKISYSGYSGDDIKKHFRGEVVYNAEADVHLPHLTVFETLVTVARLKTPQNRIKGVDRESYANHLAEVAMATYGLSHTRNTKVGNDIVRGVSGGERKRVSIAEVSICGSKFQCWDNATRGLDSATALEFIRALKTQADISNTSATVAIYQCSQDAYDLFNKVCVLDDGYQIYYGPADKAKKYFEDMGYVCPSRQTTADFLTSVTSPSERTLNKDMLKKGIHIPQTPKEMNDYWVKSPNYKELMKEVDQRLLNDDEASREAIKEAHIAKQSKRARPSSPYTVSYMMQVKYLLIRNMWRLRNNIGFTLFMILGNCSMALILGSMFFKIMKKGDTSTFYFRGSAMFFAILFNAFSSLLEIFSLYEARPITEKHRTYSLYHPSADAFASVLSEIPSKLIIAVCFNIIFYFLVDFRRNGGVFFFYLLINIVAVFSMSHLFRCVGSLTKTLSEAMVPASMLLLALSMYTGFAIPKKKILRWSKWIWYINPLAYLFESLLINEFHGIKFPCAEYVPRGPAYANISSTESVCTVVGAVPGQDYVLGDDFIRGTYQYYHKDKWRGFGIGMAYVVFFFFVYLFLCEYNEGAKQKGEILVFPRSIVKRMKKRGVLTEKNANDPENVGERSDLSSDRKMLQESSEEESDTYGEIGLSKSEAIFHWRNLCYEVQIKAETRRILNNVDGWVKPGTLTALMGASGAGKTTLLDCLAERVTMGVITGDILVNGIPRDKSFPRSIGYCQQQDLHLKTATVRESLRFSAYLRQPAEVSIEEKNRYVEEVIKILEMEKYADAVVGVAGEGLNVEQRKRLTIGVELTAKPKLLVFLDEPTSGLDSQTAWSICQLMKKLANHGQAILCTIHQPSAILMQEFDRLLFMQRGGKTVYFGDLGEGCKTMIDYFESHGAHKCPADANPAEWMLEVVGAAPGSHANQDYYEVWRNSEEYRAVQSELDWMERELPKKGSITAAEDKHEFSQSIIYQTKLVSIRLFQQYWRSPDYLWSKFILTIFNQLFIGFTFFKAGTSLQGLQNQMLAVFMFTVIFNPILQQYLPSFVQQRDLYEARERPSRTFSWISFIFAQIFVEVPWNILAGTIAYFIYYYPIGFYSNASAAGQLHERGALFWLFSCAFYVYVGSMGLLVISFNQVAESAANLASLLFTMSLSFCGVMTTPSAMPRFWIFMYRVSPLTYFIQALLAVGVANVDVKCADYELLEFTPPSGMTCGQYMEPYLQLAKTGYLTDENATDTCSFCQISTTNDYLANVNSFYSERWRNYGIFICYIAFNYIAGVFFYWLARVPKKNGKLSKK
structure (smiles),measurement,setting,value
CN1CCCC1c1cccnc1 (stereo not drawn) [nicotine],tolerance in growth performance assay,[1],increased tolerance
same,level tolerated by wild type yeast,wild type yeast,15 mM
same,level tolerated without severe growth problems,Wild type BY-2 cells,3000 µM
same,tolerance of AtPDR1 transgenic BY-2 cells,[2],enhanced tolerance
same,growth of the pdr5 mutant strain expressing AtPDR1 on the alkaloid,[3],restore the growth
same,level causing the death of all suspension cultured tobacco cells,tobacco BY-2 cells,20000 µM
CC[C@]1(O)C[C@@H]2CN(CCc3c([nH]c4ccccc34)[C@@](C(=O)OC)(c3cc4c(cc3OC)N(C)[C@H]3[C@@](O)(C(=O)OC)[C@H](OC(C)=O)[C@]5(CC)C=CCN6CC[C@]43[C@@H]65)C2)C1 [vinblastine],substrate for Pdr5p mediated multidrug transport,Pdr5p,substrates
CC(=O)O[C@H]1C(=O)[C@@]2(C)[C@H]([C@H](OC(=O)c3ccccc3)[C@]3(O)C[C@H](OC(=O)[C@H](O)[C@@H](NC(=O)c4ccccc4)c4ccccc4)C(C)=C1C3(C)C)[C@]1(OC(C)=O)CO[C@@H]1C[C@@H]2O [taxol],substrate for Pdr5p mediated multidrug transport,Pdr5p,substrates
CC[C@]1(O)C[C@H]2CN(CCc3c([nH]c4ccccc34)[C@@](C(=O)OC)(c3cc4c(cc3OC)N(C=O)[C@H]3[C@@](O)(C(=O)OC)[C@H](OC(C)=O)[C@]5(CC)C=CCN6CC[C@]43[C@@H]65)C2)C1 [vincristine],substrate for Pdr5p mediated multidrug transport,Pdr5p,substrates
[Cl][Cd][Cl] [CdCl2],HmPDR1 expression,HmPDR1,upregulated
CN1[C@@H]2C[C@@H](OC(=O)[C@H](CO)c3ccccc3)C[C@H]1[C@@H]1O[C@@H]12 [scopolamine],level tolerated by wild type yeast,wild type yeast,100 mM
CN1[C@@H]2CC[C@H]1C[C@@H](OC(=O)[C@H](CO)c1ccccc1)C2 [hyoscyamine],level tolerated by wild type yeast,wild type yeast,50 mM
same,level tolerated without severe growth problems,Wild type BY-2 cells,30000 µM
same,decrease in hyoscyamine induced cell death,[4],15%
same,level causing the death of all suspension cultured tobacco cells,tobacco BY-2 cells,50000 µM
